From article PMC4885109, “Rapid Discovery and Structure–Activity Relationships of Pyrazolopyrimidines That Potently Suppress Breast Cancer Cell Growth via SRC Kinase Inhibition with Exceptional Selectivity over ABL Kinase” (Journal of Medicinal Chemistry, 2016)
Read-outs that look alike come from different tables or passages of the source. Blank lines part the entries; values can stand above or below the molecule they belong to.

How the values were obtained:
[1] = test system: MCF7 cells; experiment: Dose-response viability assay (PrestoBlue), MCF7; type: cell-based; conditions: Homo sapiens, MCF7, 120 h; 5 d, PrestoBlue cell viability
[2] = test system: MCF7 cells; experiment: Time-lapse cell growth assay (IncuCyte ZOOM); type: cell-based, human; conditions: for antiproliferative mode of action by time-lapse imaging: 1–100 μM
[3] = target: BLK (Homo sapiens, UniProt P51451); experiment: biochemical
[4] = target: HCK (Homo sapiens, UniProt P08631); experiment: biochemical
[5] = target: LCK (Homo sapiens, UniProt P06239); experiment: Kinase screening assay, 33P radioisotope (Reaction Biology); type: biochemical; conditions: recombinant kinase, 10 μM ATP
[6] = target: LYN (Homo sapiens, UniProt P07948); experiment: biochemical
[7] = target: FRK/PTK5 (Homo sapiens, UniProt P42685); experiment: biochemical
[8] = target: FGR (Homo sapiens, UniProt P09769); experiment: Kinase screening assay, 33P radioisotope (Reaction Biology); type: biochemical
[9] = physchem; conditions: pH 7.4
[10] = target: CYP2D6 (Homo sapiens, UniProt P10635); conditions: 10 μM
[11] = test system: phospho-SRC^Y416 and phospho-FAK in MDA-MB-231 cells
[12] = in vivo; conditions: female, CD1, mouse, blood/plasma, 10 mg/kg
[13] = target: CYP3A4 (Homo sapiens, UniProt P08684); conditions: 10 μM
[14] = in vitro; conditions: mouse, cryopreserved pooled primary hepatocytes
[15] = target: CYP2C9 (Homo sapiens, UniProt P11712); conditions: 10 μM
[16] = target: T1, CYP1A2 (Homo sapiens, UniProt P05177); conditions: 10 μM
T1 sequence (P05177 1-516): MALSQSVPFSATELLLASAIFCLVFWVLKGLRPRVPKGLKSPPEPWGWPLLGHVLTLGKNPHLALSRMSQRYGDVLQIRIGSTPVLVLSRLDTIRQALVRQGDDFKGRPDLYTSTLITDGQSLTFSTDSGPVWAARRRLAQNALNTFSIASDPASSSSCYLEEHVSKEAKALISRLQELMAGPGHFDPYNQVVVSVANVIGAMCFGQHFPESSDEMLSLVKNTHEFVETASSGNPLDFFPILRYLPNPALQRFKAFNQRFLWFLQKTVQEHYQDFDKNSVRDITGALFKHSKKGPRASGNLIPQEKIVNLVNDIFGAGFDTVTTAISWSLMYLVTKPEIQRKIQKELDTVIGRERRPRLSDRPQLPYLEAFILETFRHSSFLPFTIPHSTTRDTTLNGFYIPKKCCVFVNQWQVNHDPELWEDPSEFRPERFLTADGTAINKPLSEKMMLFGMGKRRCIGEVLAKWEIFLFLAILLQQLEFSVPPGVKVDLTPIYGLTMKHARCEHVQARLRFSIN

[17] = test system: MCF7 cells
[18] = in vitro; conditions: human, cryopreserved pooled primary hepatocytes
[19] = target: CYP2C19 (Homo sapiens, UniProt P33261); conditions: 10 μM
[20] = target: ABL (Homo sapiens, UniProt P00519); experiment: Kinase screening assay, 33P radioisotope (Reaction Biology)
[21] = test system: SYF murine embryonic fibroblasts (SRC-/-, YES-/-, FYN-/-); experiment: Dose-response proliferation study in SYF cells; type: cell-based, mouse; conditions: compared with dasatinib
[22] = test system: MDA-MB-231 cells; experiment: Dose-response viability assay (PrestoBlue), MDA-MB-231; type: cell-based, human; conditions: for decrease in antiproliferative activity relative to 11a: MDA-MB-231
[23] = target: SRC (Homo sapiens, UniProt P12931); experiment: Kinase screening assay, 33P radioisotope (Reaction Biology)
[24] = human, rat, 24 h
[25] = cited from earlier work
[26] = cited from earlier work; for % F / Cmax / Tmax: PO
[27] = test system: MDA-MB-231 cells; experiment: cells; conditions: Homo sapiens, MDA-MB-231, 24 h, read-out: IC50, MDA-MB-231 Cell Migration After 24h
[28] = test system: Tg(brn3c:mGFP) zebrafish embryos; type: in vivo; conditions: 1–10 μM (compatible with embryo survival)
[29] = recombinant kinase, 10 μM ATP, read-out: IC50 (FGR)
[30] = 5 mg/kg ref Kamath et al., 2008

Chain of HCK (P08631 whole entry): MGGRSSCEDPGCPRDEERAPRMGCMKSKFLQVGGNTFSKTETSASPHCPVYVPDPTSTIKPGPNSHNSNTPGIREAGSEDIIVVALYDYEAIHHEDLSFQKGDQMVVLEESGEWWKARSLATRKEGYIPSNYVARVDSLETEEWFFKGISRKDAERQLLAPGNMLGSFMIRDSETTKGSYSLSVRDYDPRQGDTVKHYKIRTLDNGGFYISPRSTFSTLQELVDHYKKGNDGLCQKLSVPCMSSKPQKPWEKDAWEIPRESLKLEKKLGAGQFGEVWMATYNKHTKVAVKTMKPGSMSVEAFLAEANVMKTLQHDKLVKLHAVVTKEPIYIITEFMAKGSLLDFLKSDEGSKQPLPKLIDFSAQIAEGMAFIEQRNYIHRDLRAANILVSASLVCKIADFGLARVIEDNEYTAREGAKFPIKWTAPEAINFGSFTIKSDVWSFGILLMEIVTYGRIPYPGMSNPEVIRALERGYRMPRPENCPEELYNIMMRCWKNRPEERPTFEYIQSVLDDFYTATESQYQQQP
Chain of FRK/PTK5 (P42685 whole entry): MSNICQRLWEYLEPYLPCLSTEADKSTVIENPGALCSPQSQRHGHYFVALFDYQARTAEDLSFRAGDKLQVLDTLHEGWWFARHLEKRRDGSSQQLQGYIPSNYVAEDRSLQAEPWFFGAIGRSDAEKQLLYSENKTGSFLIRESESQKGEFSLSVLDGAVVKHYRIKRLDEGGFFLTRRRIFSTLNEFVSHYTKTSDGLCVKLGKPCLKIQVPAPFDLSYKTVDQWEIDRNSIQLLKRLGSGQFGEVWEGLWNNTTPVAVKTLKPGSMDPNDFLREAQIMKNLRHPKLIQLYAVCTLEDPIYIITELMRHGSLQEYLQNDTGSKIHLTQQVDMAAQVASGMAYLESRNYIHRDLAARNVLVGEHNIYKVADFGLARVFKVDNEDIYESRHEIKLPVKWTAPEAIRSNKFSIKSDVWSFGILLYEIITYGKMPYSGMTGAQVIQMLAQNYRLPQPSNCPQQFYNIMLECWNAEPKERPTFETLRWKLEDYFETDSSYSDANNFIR
Chain of FGR (P09769 whole entry): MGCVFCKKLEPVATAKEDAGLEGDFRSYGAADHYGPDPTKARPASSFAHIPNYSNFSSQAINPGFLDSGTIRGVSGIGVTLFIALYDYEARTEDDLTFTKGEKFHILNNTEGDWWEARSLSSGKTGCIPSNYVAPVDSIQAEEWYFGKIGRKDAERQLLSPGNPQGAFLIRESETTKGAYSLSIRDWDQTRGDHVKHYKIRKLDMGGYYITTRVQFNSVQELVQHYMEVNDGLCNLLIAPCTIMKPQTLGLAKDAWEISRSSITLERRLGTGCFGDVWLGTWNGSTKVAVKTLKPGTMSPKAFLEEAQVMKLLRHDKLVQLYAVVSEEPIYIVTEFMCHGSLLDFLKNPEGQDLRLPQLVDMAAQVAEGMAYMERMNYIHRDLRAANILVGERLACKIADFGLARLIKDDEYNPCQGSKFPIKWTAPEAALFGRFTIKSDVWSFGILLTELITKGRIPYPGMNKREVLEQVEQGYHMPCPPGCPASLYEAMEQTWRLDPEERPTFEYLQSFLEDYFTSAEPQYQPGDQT
Chain of LYN (P07948 whole entry): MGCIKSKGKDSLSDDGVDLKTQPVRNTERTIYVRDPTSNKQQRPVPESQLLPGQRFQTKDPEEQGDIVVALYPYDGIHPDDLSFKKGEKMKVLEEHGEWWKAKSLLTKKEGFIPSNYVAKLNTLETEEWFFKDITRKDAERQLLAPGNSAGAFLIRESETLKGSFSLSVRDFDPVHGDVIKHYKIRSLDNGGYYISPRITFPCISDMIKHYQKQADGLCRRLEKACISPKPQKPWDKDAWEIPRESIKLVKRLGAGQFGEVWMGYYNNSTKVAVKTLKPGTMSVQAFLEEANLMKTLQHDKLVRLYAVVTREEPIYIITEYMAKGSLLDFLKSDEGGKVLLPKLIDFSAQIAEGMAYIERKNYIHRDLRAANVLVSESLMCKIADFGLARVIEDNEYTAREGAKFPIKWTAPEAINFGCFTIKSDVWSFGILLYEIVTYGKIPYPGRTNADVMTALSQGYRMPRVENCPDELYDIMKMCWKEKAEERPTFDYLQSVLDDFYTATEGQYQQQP
Chain of LCK (P06239 whole entry): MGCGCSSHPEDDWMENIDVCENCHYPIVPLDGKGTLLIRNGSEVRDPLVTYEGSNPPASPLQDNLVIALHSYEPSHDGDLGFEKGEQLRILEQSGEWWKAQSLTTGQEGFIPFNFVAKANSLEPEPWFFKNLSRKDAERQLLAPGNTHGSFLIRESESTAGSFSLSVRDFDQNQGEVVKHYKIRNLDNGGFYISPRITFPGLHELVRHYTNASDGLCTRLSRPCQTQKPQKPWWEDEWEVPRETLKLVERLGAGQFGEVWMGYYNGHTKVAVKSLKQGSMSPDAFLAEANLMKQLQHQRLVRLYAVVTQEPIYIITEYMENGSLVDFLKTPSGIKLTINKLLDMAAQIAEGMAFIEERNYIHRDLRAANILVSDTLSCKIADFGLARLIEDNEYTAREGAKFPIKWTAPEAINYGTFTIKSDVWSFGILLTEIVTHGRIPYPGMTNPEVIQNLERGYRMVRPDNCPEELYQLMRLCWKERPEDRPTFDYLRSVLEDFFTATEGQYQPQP
Chain of BLK (P51451 whole entry): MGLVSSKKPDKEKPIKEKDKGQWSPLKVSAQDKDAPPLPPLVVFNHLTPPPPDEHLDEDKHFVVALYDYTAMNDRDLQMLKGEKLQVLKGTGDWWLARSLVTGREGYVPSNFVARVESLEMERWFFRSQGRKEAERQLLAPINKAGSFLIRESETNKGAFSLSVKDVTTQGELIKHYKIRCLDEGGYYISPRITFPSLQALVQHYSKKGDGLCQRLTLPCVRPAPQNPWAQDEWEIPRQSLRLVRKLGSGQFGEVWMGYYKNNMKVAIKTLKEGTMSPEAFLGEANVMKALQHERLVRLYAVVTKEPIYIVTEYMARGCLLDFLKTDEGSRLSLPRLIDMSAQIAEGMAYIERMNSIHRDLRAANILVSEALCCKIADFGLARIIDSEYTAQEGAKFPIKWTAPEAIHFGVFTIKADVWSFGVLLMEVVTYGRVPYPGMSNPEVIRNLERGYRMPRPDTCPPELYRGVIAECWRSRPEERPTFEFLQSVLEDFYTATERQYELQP
Chain of ABL (P00519 whole entry): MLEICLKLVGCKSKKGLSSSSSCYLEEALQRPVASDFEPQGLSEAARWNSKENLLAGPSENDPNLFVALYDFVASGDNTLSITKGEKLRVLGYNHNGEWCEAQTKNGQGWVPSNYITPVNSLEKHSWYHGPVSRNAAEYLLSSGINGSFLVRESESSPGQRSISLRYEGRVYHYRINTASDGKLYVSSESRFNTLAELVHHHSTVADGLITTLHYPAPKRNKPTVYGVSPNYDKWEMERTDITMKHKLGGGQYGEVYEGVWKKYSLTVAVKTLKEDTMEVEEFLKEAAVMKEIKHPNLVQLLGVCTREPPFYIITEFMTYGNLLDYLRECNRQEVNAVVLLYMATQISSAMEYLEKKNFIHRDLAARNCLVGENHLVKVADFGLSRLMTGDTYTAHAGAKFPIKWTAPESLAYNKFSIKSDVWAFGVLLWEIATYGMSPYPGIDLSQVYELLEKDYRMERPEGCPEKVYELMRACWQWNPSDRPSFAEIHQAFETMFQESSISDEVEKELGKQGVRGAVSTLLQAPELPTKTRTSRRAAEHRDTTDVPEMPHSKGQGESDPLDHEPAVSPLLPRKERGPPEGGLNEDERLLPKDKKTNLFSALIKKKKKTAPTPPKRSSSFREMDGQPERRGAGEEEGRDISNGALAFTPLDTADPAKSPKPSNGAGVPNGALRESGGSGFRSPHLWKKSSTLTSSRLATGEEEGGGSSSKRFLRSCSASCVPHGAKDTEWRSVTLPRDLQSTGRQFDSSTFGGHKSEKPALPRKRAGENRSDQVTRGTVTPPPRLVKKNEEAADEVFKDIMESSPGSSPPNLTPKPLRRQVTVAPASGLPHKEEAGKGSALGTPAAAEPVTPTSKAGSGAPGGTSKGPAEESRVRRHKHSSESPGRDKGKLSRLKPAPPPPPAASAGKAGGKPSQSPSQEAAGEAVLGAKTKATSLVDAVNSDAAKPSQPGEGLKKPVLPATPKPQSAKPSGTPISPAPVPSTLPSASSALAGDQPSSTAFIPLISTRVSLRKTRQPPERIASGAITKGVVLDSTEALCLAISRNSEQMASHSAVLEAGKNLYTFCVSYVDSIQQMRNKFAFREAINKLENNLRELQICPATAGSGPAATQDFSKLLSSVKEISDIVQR
Chain of SRC (P12931 whole entry): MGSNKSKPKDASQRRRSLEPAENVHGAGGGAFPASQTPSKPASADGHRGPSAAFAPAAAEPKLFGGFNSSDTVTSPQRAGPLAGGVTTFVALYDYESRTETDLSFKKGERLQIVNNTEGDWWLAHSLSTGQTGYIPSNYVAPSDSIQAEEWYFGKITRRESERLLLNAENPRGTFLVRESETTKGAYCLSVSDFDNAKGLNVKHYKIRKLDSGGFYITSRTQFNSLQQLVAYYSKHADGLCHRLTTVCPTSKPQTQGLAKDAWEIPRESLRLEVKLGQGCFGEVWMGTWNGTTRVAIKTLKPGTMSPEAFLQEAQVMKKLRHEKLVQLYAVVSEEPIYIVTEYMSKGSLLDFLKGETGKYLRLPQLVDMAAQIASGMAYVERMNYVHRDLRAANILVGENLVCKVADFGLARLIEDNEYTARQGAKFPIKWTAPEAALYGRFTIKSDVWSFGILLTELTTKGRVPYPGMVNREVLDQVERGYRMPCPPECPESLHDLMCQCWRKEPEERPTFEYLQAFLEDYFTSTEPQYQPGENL

IC50 [20]: 189 nM
Structure (SMILES): COc1cc(-c2nn(CCN3CCC(CN(C)C)CC3)c3ncnc(N)c23)ccc1NC(=O)OC(C)(C)C [11b]
antiproliferative activity in SYF cells [21]: significantly less antiproliferative activity in SYF cells than dasatinib

EC50 [1]: 4930 nM
Structure (SMILES): COc1cc(-c2nn(CCN3CCC(N(C)C)CC3)c3ncnc(N)c23)ccc1N [12g]

EC50 [1]: 7040 nM
Structure (SMILES): COc1cc(-c2nn(CCN3CCC(N(C)C)CC3)c3ncnc(N)c23)ccc1NC(=O)CCc1ccccc1 [12k, N-[4-[4-amino-1-[2-[4-(dimethylamino)-1-piperidyl]ethyl]pyrazolo[3,4-d]pyrimidin-3-yl]-2-methoxy-phenyl]-3-phenyl-propanamide]

decrease in SRC inhibitory activity relative to 11a [23]: > 200 fold
Structure (SMILES): CN(C)C1CCN(CCn2nc(-c3ccc(NC(=O)OC(C)(C)C)c(O)c3)c3c(N)ncnc32)CC1 [12s]
decrease in antiproliferative activity relative to 11a [22]: > 200 fold

EC50 ([22]; read-out: EC50 (MDA-MB-231), 5 d, PrestoBlue cell viability): 16700 nM
Structure (SMILES): CN(C)C1CCN(CCn2nc(-c3ccc(NC(=O)OC(C)(C)C)nc3)c3c(N)ncnc32)CC1 [12u]

IC50 [8]: 7.6 nM
Structure (SMILES): Cc1ccc(-c2nn(C(C)(C)C)c3ncnc(N)c23)cc1 [PP1, reference compound]

More lines, now with the values behind:

Structure (SMILES): Cc1ccc(-c2nn(CCN3CCCCC3)c3ncnc(N)c23)cc1 [7a]
EC50 [1]: 48800 nM

Structure (SMILES): Cc1ccc(-c2nn(CCN3CCN(C)CC3)c3ncnc(N)c23)cc1 [7d]
cell proliferation (% confluence over time) ([2]; single dose 100 μM, 5 d, time-lapse imaging): strong inhibition of cell proliferation

Structure (SMILES): Cc1ccc(-c2nn(CCN3CCC(N(C)C)CC3)c3ncnc(N)c23)cc1 [7i]
IC50 [3]: 1540 nM
IC50 [4]: 1520 nM

Structure (SMILES): Cc1ccc(-c2nn(CCN3CCC(CN(C)C)CC3)c3ncnc(N)c23)cc1 [7j]
IC50 [3]: 2850 nM
IC50 [5]: 1540 nM
IC50 [6]: 1070 nM
IC50 [4]: 6010 nM
IC50 [7]: 1630 nM

Structure (SMILES): Cc1ccc(-c2nn(CCN3CCC(CCN(C)C)CC3)c3ncnc(N)c23)cc1 [7k]
IC50 [5]: 4340 nM
IC50 [6]: 2510 nM
IC50 [4]: 11600 nM
IC50 [7]: 3700 nM
IC50 [8, 29]: 601 nM

Structure (SMILES): CCOC(Cn1nc(-c2cnc3[nH]ccc3c2)c2c(N)ncnc21)OCC [8d, 1-(2,2-Diethoxyethyl)-3-(1H-pyrrolo[2,3-b]pyridin-5-yl)pyrazolo[3,4-d]pyrimidin-4-amine]
antiproliferative mode of action by time-lapse imaging [2]: halted cell division
IC50 [5]: 8610 nM
IC50 [6]: 2310 nM
IC50 [4]: 6770 nM
IC50 [7]: 2690 nM
IC50 [8, 29]: 2130 nM

Structure (SMILES): CN(C)CC1CCN(CCn2nc(-c3cnc4[nH]ccc4c3)c3c(N)ncnc32)CC1 [9d, 1-[2-[4-(Dimethylaminomethyl)-1-piperidyl]ethyl]-3-(1H-pyrrolo[2,3-b]pyridin-5-yl)pyrazolo[3,4-d]pyrimidin-4-amine]
antiproliferative mode of action by time-lapse imaging [2]: induced cell death

Structure (SMILES): COc1cc(-c2nn(CCN3CCC(N(C)C)CC3)c3ncnc(N)c23)ccc1NC(=O)OC(C)(C)C [11a, tert-Butyl N-[4-[4-amino-1-[2-[4-(dimethylamino)-1-piperidyl]ethyl]pyrazolo[3,4-d]pyrimidin-3-yl]-2-methoxy-phenyl]carbamate]
solubility [9]: > 100 mg/mL
inhibition of CYP2D6 [10]: ≤ 0%
concentration with complete inhibition of phosphorylation of SRC and FAK [11]: 100 nM
AUC ([12]; iv): 2070 ng·h/mL
clearance ([12]; iv): 72.3 mL/min/kg
AUC ([12]; po): 530 ng·h/mL
Cmax ([12]; po): 100 ng/mL
Tmax ([12]; po): 2 h
inhibition of CYP3A4 [13]: ≤ 0%
half-life at 3 µM [14]: 1.83 h
hepatocyte CLint at 3 µM [14]: 12.5 µL/min/1e6 cells
inhibition of CYP2C9 [15]: ≤ 0%
inhibition of CYP1A2 [16]: 24.54%
concentration giving significant apoptotic cell death (caspase 3/7 activity) [17]: ≥ 100 nM
hepatocyte CLint at 3 µM [18]: 1.84 µL/min/1e6 cells
inhibition of CYP2C19 [19]: ≤ 0%

Structure (SMILES): COc1cc(-c2ccn(CCN3CCC(N(C)C)CC3)n2)ccc1NC(=O)OC(C)(C)C [12f]
decrease in antiproliferative activity relative to 11a [22]: > 3000 fold

Structure (SMILES): CC(=O)CC(c1ccccc1)c1c(O)c2ccccc2oc1=O (stereo not drawn) [Warfarin]
plasma protein bound [24]: 99–100%

Structure (SMILES): Cc1nc(Nc2ncc(C(=O)Nc3c(C)cccc3Cl)s2)cc(N2CCN(CCO)CC2)n1.O [dasatinib]
solubility in water ([25]; pH = 2.6 ref 56): 18 mg/mL
solubility in water ([25]; pH = 7 ref 56): < 0.001 mg/mL
T1/2 ([26]; IV, 10 mg/kg, mice ref Kamath et al., 2008 (58)): 0.9 h
CL ([26]; IV, 10 mg/kg, mice ref Kamath et al., 2008): 61.7 mL/min/kg
% F [26, 30]: 17%
Cmax [26, 30]: 104 ng/mL
Tmax [26, 30]: 2 h
% F ([26]; 5 mg/kg ref Luo et al., 2006): 45%
Cmax ([26]; 5 mg/kg ref Luo et al., 2006): 58 ng/mL
Tmax ([26]; 5 mg/kg ref Luo et al., 2006): 1 h
IC50 [27]: 8.4 nM
neuromast migration [28]: did not inhibit the migration of neuromasts

Structure (SMILES): O=c1ccc2ccc(O)cc2o1 [umbelliferone, reference compound]
half-life at 3 µM [14]: 0.0233 h
hepatocyte CLint at 3 µM [14]: 983 µL/min/1e6 cells
half-life at 3 µM [18]: 9.7 min
hepatocyte CLint at 3 µM [18]: 150 µL/min/1e6 cells
